In US20240092761A1, “QUINAZOLINE COMPOUNDS AND METHODS OF USE” (IAMBIC THERAPEUTICS, INC., priority 2022, published 2024):

Key:
[1] = biological target: CDK1/Cyclin B1 (Homo sapiens (Human), UniProt P06493); test: CDK1/Cyclin B1 ADP-Glo Kinase Assay; assay type: biochemical; settings: 80 uM ATP
Protocol: CDK1/Cyclin B1 ADP-Glo Kinase Assay
(§1) The purpose of CDK1/Cyclin B1 assay is to evaluate the inhibition (% inhibition and IC50 values) of small molecule inhibitors by using a Luminescent based ADP-Glo assay. CDK1/Cyclin B1 catalyzes the production of ADP from ATP. ADP-Glo assay monitors ADP producing biochemical reactions. ADP-Glo is performed in 2 steps upon completion of kinase reaction: a combined termination of kinase reaction and depletion of remaining ATP in the first step, and conversion of generated ADP to ATP and the newly produced ATP to light output using luciferase/luciferin reaction in the second step. The luminescent signal generated is proportional to the ADP concentration produced and is correlated with the kinase activity. CDK1/Cyclin B1 was purchased from Carna (Cat 04-102). Typical reaction solutions (10 uL final reaction volume) contained 2% DMSO (f inhibitor), 10 mM MgCl2, 1 mM EGTA, 0.05% BSA, 2 mM DTT, 80 uM ATP (ATP Km=78.6 uM), 0.01% Brig-35, 0.75 uM substrate, and 4.917 nM CDK1/Cyclin Bl enzyme complex in 50 mM HEPES buffer at pH 7.5. The assay was initiated with the addition of ATP-containing substrate solution, following a 30-minute pre-incubation of enzyme and inhibitor at room temperature in the reaction mixture. The reaction was stopped after 90 minutes at room temperature by the addition of 10 uL of ADP-GLO Reagent. After a 90 minute incubation, 20 uL of Kinase Detection Reagent was added. Samples were incubated for 40 minutes, after which plate well luminescence was measured on a Envision microplate reader. The IC50 determinations were made from a plot of the fractional velocity as a function of inhibitor concentration fit to the 4 parameters IC50 equation.

[2] = biological target: CDK2/Cyclin E1 full length (Homo sapiens (Human), UniProt P24941); test: CDK2/Cyclin E1 Full Length ADP-Glo Kinase Assay; assay type: biochemical; settings: 20 uM ATP, read-out: CDK2/ CyclinE1 IC50
Protocol: CDK2/Cyclin E1 Full Length ADP-Glo Kinase Assay
The purpose of CDK2/Cyclin E1 assay is to evaluate the inhibition (% inhibition and IC50 values) of small molecule inhibitors by using a Luminescent based ADP-Glo assay. CDK2/Cyclin E1 full length catalyzes the production of ADP from ATP. ADP-Glo assay monitors ADP producing biochemical reactions. ADP-Glo is performed in 2 steps upon completion of kinase reaction: a combined termination of kinase reaction and depletion of remaining ATP in the first step, and conversion of generated ADP to ATP and the newly produced ATP to light output using luciferase/luciferin reaction in the second step. The luminescent signal generated is proportional to the ADP concentration produced and is correlated with the kinase activity. CDK2/Cyclin E1 was purchased from Eurofins (Cat 14-475M). Typical reaction solutions (10 uL final reaction volume) contained 2% DMSO (f inhibitor), 10 mM MgCI2, 1 mM EGTA, 0.05% BSA, 2 mM DTT, 20 uM ATP (ATP Km=64.78 uM), 0.01% Brig-35, 0.75 uM substrate, and 0.328 nM wild-type full length CDK2/Cyclin E1 enzyme complex in 50 mM HEPES buffer at pH 7.5. The assay was initiated with the addition of ATP-containing substrate solution, following a 30-minute pre-incubation of enzyme and inhibitor at room temperature in the reaction mixture. The reaction was stopped after 90 minutes at room temperature by the addition of 10 uL of ADP-GLO Reagent. After a 90 minute incubation, 20 uL of Kinase Detection Reagent was added. Samples were incubated for 40 minutes, after which plate well luminescence was measured on a Envision microplate reader. The IC50 determinations were made from a plot of the fractional velocity as a function of inhibitor concentration fit to the 4 parameters IC50 equation.

[3] = biological target: CDK4/Cyclin D1 (Homo sapiens (Human), UniProt P11802); test: CDK4/Cyclin D1 CHEF Assay (AQT0258 peptide); assay type: biochemical; settings: 200 uM ATP, read-out: CDK4/ CyclinD1 AQT IC50
CDK4/Cyclin D1, sequence (P11802 whole entry): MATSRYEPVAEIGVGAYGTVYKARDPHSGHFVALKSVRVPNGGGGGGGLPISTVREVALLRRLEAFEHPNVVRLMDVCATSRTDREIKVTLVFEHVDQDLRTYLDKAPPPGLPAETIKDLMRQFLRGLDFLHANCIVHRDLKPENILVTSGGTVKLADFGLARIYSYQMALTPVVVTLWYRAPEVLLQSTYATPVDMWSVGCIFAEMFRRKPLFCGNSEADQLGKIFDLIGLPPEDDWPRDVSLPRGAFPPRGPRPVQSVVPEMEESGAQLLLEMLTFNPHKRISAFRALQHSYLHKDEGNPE
CDK4/Cyclin D1, sequence (P24385 whole entry partner): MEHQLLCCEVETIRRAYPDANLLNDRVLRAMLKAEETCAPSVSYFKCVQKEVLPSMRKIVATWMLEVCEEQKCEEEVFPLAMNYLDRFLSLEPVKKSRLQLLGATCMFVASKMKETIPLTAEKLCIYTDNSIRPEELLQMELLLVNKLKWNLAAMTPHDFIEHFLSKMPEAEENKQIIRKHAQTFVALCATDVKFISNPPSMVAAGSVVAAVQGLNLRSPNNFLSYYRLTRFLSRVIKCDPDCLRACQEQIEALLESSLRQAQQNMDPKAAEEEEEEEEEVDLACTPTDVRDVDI
Text: CDK4/Cyclin D1 CHEF Assay
The purpose of CDK4/Cyclin Dl assay is to evaluate the inhibition (% inhibition and IC50 values) of small molecule inhibitors by using a Chelation-Enhance Fluorescence (CHEF) assay. In a CHEF assay, phosphorylation of a peptide substrate results in proportional increase in fluorescence. CHEF kinase assay use peptide substrates containing a synthetic alpha-amino acid with a side chain bearing an 8-hydroxyquinoline derivative (sulfonamido-oxide, Sox). Upon phosphorylation of a nearby serine, threonine or tyrosine and in the presence of Mg(II), the spectral properties of the Sox residue are altered, emitting 485 nm wavelength light when excited with a 360 nm wavelength light source. CDK4/Cyclin D1 catalyzes the phosphoryl transfer to the SOX-labeled substrate peptide AQT0258 from Assayquant Technologies. Typical reaction solutions contained 2% DMSO (+/−inhibitor), 10 mM MgCl2, 1 mM DTT, 200 uM ATP (ATP Km=195.2 uM), 0.012% Brig-35, 10 uM AQT0258 peptide, 0.02% BSA, 1% Glycerol, 0.55 mM EGTA, 2.5 nM CDK4/Cyclin D1 in 54 mM HEPES buffer at pH 7.5. The reaction was initiated with the addition of substrate solution, following a 30-minute pre-incubation of enzyme and inhibitor at 22° C. in the reaction mix. Reactions were allowed to proceed for 3 hrs at 22° C., followed by fluorescence read of the reaction. The IC50 determinations were made from a plot of the fractional velocity as a function of inhibitor concentration fit to the 4 parameters IC50 equation.

[4] = biological target: CDK6/Cyclin D3 (Homo sapiens (Human), UniProt Q00534); test: CDK6/Cyclin D3 ADP-Glo Kinase Assay; assay type: biochemical; settings: 100 uM ATP, read-out: CDK6/ CyclinD3 IC50
CDK6/Cyclin D3, sequence (Q00534 whole entry): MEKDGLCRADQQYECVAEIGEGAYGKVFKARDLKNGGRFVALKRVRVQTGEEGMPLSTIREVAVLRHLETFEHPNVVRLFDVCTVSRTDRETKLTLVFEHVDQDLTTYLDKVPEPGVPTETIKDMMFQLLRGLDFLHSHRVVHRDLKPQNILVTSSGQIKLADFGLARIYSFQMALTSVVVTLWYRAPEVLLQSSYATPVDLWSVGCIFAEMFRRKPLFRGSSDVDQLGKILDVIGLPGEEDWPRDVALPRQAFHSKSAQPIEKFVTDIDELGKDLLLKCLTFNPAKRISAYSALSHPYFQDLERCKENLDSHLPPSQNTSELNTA
CDK6/Cyclin D3, sequence (P30281 whole entry partner): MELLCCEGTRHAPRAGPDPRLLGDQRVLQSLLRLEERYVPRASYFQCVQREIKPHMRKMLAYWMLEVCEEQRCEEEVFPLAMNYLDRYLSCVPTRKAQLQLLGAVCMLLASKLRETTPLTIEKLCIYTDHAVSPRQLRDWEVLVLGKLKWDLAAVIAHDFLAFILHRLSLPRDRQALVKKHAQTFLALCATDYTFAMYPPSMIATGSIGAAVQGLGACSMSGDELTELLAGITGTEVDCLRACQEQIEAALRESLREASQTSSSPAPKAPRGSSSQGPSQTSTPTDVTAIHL
Protocol: CDK6/Cyclin D3 ADP-Glo Kinase Assay
as §1, with “of the CDK6/Cyclin D3” for “of CDK1/Cyclin B1”, “values) in the presence” for “values)”, “assay. CDK6/Cyclin D3” for “assay. CDK1/Cyclin B1”, “activity. CDK6/Cyclin D3” for “activity. CDK1/Cyclin B1”, “from Carna. […]” for “from Carna (Cat 04-102). Typical reaction solutions (10 uL final reaction volume) contained 2% DMSO (f inhibitor), 10 mM MgCl2, 1 mM EGTA, 0.05% BSA, 2 mM DTT, 80 uM ATP (ATP Km=78.6 uM), 0.01% Brig-35, 0.75 uM substrate, and 4.917 nM CDK1/Cyclin Bl enzyme complex in 50 mM HEPES buffer at pH 7.5.”, “a 90-minute” for “a 90 minute”

[5] = test system: MCF-7 cells; test: Cell Growth Inhibition, MCF-7 (CellTiterGlo, 6 days); assay type: cell-based; settings: MCF-7, 6-day treatment, CellTiterGlo 2.0
Text: (§2) MCF-7 and OVCAR-3 cells were used to evaluate the anti-proliferation activity of the CDK inhibitors. MCF-7 (ATCC, HTB-22) cells are epithelial cells from a patient with ER+ metastatic adenocarcinoma. OVCAR-3 (ATCC, HTB-161) cells were derived from malignant ascites of a patient with ovarian cancer and are known to have CCNE1 amplification. Both cell lines were maintained in RPMI media supplemented with 10% fetal bovine serum. For cell growth inhibition assay, CDK inhibitors in DMSO solution were dispensed with either Echo 655 (Beckman Coulter) or Tecan D300e (HP) into 384-well plates (Corning #3765) and the 384-well plates were UV-sterilized prior to the assay. The inhibitors were typically tested in the 10-10,000 nM concentration range with half-log serial dilutions. MCF-7 or OVCAR-3 (500 cells/30 μL/well) were added to each well using Multidrop Combi (ThermoFisher) using standard cassettes. The assay plates with cells were cultured at 37° C., 5% CO2 for 6 days. At the end of the 6-day treatment, 30 μL of CellTiterGlo 2.0 (Promega) was added to each well and the luminescent signal was read using CLARIOstar plus (BMG). The percentage of cell growth inhibition (% CGI) was calculated using the following formula % CGI=100−100×luminescencesample/luminescencecontrol. The half maximal inhibitory concentration (IC50) was determined by nonlinear curve fitting (four parameters, variable slope).

[6] = test system: OVCAR-3 cells; test: Cell Growth Inhibition, OVCAR-3 (CellTiterGlo, 6 days); assay type: cell-based; settings: OVCAR-3, 6-day treatment, CellTiterGlo 2.0
Text: as §2

CDK1/Cyclin B1, sequence (P06493 whole entry): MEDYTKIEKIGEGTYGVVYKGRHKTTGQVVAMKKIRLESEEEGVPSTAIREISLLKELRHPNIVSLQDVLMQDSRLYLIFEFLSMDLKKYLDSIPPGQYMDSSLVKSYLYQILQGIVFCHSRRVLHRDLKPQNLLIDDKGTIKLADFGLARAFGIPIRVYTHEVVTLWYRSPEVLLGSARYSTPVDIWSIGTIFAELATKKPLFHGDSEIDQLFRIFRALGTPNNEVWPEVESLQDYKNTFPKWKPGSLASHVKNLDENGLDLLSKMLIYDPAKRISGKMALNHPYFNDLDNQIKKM
CDK1/Cyclin B1, sequence (P14635 whole entry partner): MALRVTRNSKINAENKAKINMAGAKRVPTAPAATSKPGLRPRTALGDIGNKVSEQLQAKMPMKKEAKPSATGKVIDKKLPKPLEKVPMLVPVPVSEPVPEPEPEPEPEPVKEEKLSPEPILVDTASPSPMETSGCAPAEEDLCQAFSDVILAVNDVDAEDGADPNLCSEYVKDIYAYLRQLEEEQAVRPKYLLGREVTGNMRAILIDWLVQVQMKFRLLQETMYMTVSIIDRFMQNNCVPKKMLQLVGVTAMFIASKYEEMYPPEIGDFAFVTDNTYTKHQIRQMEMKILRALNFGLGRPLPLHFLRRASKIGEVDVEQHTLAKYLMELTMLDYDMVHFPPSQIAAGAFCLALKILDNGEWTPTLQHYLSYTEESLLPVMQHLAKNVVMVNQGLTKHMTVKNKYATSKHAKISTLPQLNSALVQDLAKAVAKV

IC50 [1] [nM]	IC50 [2] [nM]	IC50 [3] [nM]	IC50 [4] [nM]	IC50 ([5]; Homo sapiens, MCF7, 144 h) [nM]	IC50 ([6]; Homo sapiens, 144 h) [nM]	IC50 [5] [nM]	IC50 [6] [nM]	Compound
< 200	< 200	< 200	< 200	200 to 500	200 to 500	–	–	O=S(=O)(C1CC1)N1CCC(Nc2ncc3cc(C(F)F)cc(N4CC5(CCNC5)C4)c3n2)CC1 [Example 74, N-(1-(cyclopropylsulfonyl)piperidin-4-yl)-6-(difluoromethyl)-8-(2,6-diazaspiro[3.4]octan-2-yl)quinazolin-2-amine]
< 200	< 200	< 200	< 200	500 to 2000	500 to 2000	–	–	Cn1ncc2cc(Nc3ncc4cc(C(F)F)cc(N5CC6(CCNC6)C5)c4n3)ccc21 [Example 75, 6-(difluoromethyl)-N-(1-methyl-1H-indazol-5-yl)-8-(2,6-diazaspiro[3.4]octan-2-yl)quinazolin-2-amine]
500 to 2000	< 200	< 200	< 200	500 to 2000	500 to 2000	–	–	COCCN1CC2(C1)CN(c1cc(C(F)F)cc3cnc(NC4CCN(S(=O)(=O)C5CC5)CC4)nc13)C2 [Example 76, N-(1-(cyclopropylsulfonyl)piperidin-4-yl)-6-(difluoromethyl)-8-(6-(2-methoxyethyl)-2,6-diazaspiro[3.3]heptan-2-yl)quinazolin-2-amine]

Further lines, the compound ahead of its results:

Compound	IC50 [1] [nM]	IC50 [2] [nM]	IC50 [3] [nM]	IC50 [4] [nM]	IC50 ([5]; Homo sapiens, MCF7, 144 h) [nM]	IC50 ([6]; Homo sapiens, 144 h) [nM]	IC50 [5] [nM]	IC50 [6] [nM]
FC(F)c1cc(N2CC3(CCNC3)C2)c2nc(NC3CCN(c4ncc(C5CC5)cn4)CC3)ncc2c1 [Example 68, N-(1-(5-cyclopropylpyrimidin-2-yl)piperidin-4-yl)-6-(difluoromethyl)-8-(2,6-diazaspiro[3.4]octan-2-yl)quinazolin-2-amine]	< 200	< 200	< 200	200 to 500	500 to 2000	500 to 2000	–	–
CS(=O)(=O)N1CCC(Nc2ncc3cc(C(F)F)cc(N4CC5(C4)CN(C4CC4)C5)c3n2)CC1 [Example 69, 8-(6-cyclopropyl-2,6-diazaspiro[3.3]heptan-2-yl)-6-(difluoromethyl)-N-(1-(methylsulfonyl)piperidin-4-yl)quinazolin-2-amine]	200 to 500	< 200	< 200	< 200	200 to 500	500 to 2000	–	–
CS(=O)(=O)N1CCC(Nc2ncc3cc(C(F)F)cc(C4CC5(CCNC5)C4)c3n2)CC1 (stereo not drawn) [Example 70, 6-(difluoromethyl)-N-(1-(methylsulfonyl)piperidin-4-yl)-8-(6-azaspiro[3.4]octan-2-yl)quinazolin-2-amine]	< 200	< 200	< 200	< 200	200 to 500	200 to 500	–	–
CN1CC2(CCN(c3cc(C(F)F)cc4cnc(NC5CCN(c6ncc7ccn(C8CC8)c7n6)CC5)nc34)C2)C1 [Example 71, N-(1-(7-cyclopropyl-7H-pyrrolo[2,3-d]pyrimidin-2-yl)piperidin-4-yl)-6-(difluoromethyl)-8-(2-methyl-2,6-diazaspiro[3.4]octan-6-yl)quinazolin-2-amine]	> 2000	200 to 500	< 200	500 to 2000	500 to 2000	500 to 2000	–	–
CS(=O)(=O)N1Cc2ccc(Nc3ncc4cc(C(F)F)cc(N5CC6(C5)CN(C5CC5)C6)c4n3)cc2C1 [Example 72, 8-(6-cyclopropyl-2,6-diazaspiro[3.3]heptan-2-yl)-6-(difluoromethyl)-N-(2-(methylsulfonyl)isoindolin-5-yl)quinazolin-2-amine]	< 200	< 200	< 200	< 200	500 to 2000	> 2000	–	–
CN1CC2(CCN(c3cc(C(F)F)cc4cnc(Nc5ccc6c(c5)CN(S(C)(=O)=O)C6)nc34)C2)C1 [Example 73, 6-(difluoromethyl)-8-(2-methyl-2,6-diazaspiro[3.4]octan-6-yl)-(methylsulfonyl)N-(2-isoindolin-5-yl)quinazolin-2amine]	< 200	< 200	< 200	< 200	–	–	200 to 500	500 to 2000
